Reference: patent publication US20120035161A1, “Novel Compositions and Methods of Treating Diseases Using the Same” (CORRIDOR PHARMACEUTICALS, INC., priority 2006, published 2012)

Legend:
HepG2 cells = assay: Phospholipidosis assay (LipidTox); assay type: cell-based
Experimental: (§1) More recently, fluorescent dyes have been utilized to assess phospholipidosis in a high throughput manner (Nioi et al., 2007, Toxicol. Sci. 99:162-173). In this assay, HepG2 cells are plated in MEM growth medium and allowed to incubate overnight. Cells are treated with test compounds that have been added to the assay medium (10% fetal bovine serum) containing LipidTox (fluorescent lipophilic dye). After 48 h incubation, cells are fixed and stained with Hoechst. Plates are scanned with an automated fluorescent microscope (Thermo Fisher Cellomics ArrayScan 4.5) and image analysis is used to quantitate cell number and phospholipid accumulation. Compounds are tested in triplicate at multiple concentrations. Three reference compounds, sertraline, perhexyline, and meclizine (high, medium, and low inducers of phospholipidosis, respectively) are included in each assay. The data is expressed as fold induction over background and the % of the positive control (sertraline), which is calculated using the following equation:
(§2) % positive control=100×(RFUcompound−RFUbackground)/(RFUsertaline−RFUbackground),
(§3) where RFU=Relative Fluorescence Unit

[1] = Phospholipidosis assay (LipidTox); assay type: cell-based; conditions: human
Experimental: as §1, §2, §3

[2] = molecular target: T1, Serotonin (5-Hydroxytryptamine) 5-HT1B (Rattus norvegicus, UniProt P28564); assay: Assay 271200 radioligand binding, 5-HT1B; parameters: species or system Wistar Rat
T1 construct: from tissue
Experimental: (§4) The methods employed in this study have been adapted from the scientific literature to maximize reliability and reproducibility. Reference standards were run as an integral part of each assay to ensure the validity of the results obtained. Assays were performed under conditions as described below. Where presented, IC50 values were determined by a non-linear, least squares regression analysis using the Data Analysis Toolbox (MDL Information Systems, San Leandro, Calif., USA). Where inhibition constants (Ki) are presented, the Ki values were calculated using the equation of Cheng and Prusoff (Cheng, Y., Prusoff, W. H., Biochem. Pharmacol. 22:3099-3108, 1973) using the observed IC50 of the tested compound, the concentration of radioligand employed in the assay, and historical values for the KD of the ligand. Where presented, the Hill coefficient (nu), defining the slope of the competitive binding curve, was calculated using the Data Analysis Toolbox.

[3] = tested on: Serotonin (5-Hydroxytryptamine) 5-HT1, Non-Selective; assay: Assay 271000 radioligand binding, 5-HT1 non-selective; parameters: species or system Wistar Rat
Experimental: as §4

[4] = tested on: Serotonin (5-Hydroxytryptamine) 5-HT2, Non-Selective; assay: Assay 271600 radioligand binding, 5-HT2 non-selective; parameters: species or system Wistar Rat
Experimental: as §4

[5] = molecular target: T2, Serotonin (5-Hydroxytryptamine) 5-HT1A (Homo sapiens, UniProt P08908); assay: Radioligand binding, 5-HT1A ([3H] 8-OH-DPAT)
T2 construct: expressed in transfected cells; host or cells: CHO cells
T2 sequence (P08908 1-422): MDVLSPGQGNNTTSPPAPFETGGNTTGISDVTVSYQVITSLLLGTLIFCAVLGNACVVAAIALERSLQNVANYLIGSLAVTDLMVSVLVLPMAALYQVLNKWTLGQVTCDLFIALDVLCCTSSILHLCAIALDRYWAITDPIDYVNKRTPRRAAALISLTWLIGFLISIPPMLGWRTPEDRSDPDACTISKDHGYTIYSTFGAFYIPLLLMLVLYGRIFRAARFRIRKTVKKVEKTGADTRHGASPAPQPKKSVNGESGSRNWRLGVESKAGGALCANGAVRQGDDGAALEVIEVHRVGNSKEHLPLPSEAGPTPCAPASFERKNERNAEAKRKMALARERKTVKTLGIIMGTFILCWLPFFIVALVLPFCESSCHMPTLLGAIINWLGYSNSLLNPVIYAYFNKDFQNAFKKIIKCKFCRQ
Experimental: as §4

T1 sequence (P28564 whole entry): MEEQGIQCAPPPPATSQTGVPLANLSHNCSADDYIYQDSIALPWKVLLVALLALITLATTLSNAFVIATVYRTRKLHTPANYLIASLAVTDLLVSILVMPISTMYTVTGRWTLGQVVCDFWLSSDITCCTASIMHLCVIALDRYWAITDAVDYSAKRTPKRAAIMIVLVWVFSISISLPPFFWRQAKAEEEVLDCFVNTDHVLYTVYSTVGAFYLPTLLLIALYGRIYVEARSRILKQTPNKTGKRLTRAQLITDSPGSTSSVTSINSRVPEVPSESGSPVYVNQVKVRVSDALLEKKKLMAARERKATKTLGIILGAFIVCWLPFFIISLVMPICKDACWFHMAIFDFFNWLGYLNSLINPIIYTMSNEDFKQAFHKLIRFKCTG

Compound: O=CNCC(=O)NCCN1CCN(CCCN2c3ccccc3Sc3ccc(C(F)(F)F)cc32)CC1 [Compound 37b, 2-formamido-N-(2-(4-(3-(2-(trifluoromethyl)-10H-phenothiazin-10-yl)propyl)piperazin-1-yl)ethyl)acetamide]
- cytotoxicity to HepG2 cells (HepG2 cells): less cytotoxicity
- propensity to form phospholipidosis (HepG2 cells): lower propensity
- % Positive Control (HepG2 cells; human, 48 h, 1 μM): 0.2%
- % Positive Control (HepG2 cells; human, 48 h, 3 μM): 5.8%
- % Positive Control (HepG2 cells; human, 48 h, 10 μM): 21.3%
- cytotoxicity at 48 h, 1 µM [1]: 32%
- cytotoxicity at 48 h, 3 µM [1]: 17%
- cytotoxicity at 48 h, 10 µM [1]: 46%
- cytotoxicity at 48 h, 30 µM [1]: 100%
- fold induction at 48 h, 1 µM [1]: 1
- fold induction at 48 h, 3 µM [1]: 4
- fold induction at 48 h, 10 µM [1]: 12

Compound: C1CCC(C(CC2CCCCN2)C2CCCCC2)CC1 (stereo not drawn) [Perhexil, perhexyline, reference compound]
- % Cytotoxicity (HepG2 cells; 3 μM, 48 h): 10%
- Fold Induction (HepG2 cells; 3 μM, 48 h): 38
- % Positive Control (HepG2 cells; 3 μM, 48 h, positive control sertraline): 72%

Compound: FC(F)(F)c1ccc2c(c1)N(CCC1CCNCC1)c1ccccc1S2 [ICI-1007]
- % INHIBITION ([2]; 0.1 μM): 8%
- % INHIBITION ([2]; 10 μM): 48%
- % INHIBITION ([3]; 0.1 μM): −12%
- % INHIBITION ([3]; 10 μM): 24%
- % INHIBITION ([4]; 0.1 μM): 51%
- % INHIBITION ([4]; 10 μM): 87%
- % INHIBITION ([5]; 0.1 μM): 2%
- % INHIBITION ([5]; 10 μM): 48%

Compound: CNCC(=O)NCCN1CCC(CCCN2c3ccccc3Sc3ccc(C(F)(F)F)cc32)CC1 [ICI-849]
- inhibition at 0.1 µM ([2]; 0.1 μM): -7%
- inhibition at 10 µM ([2]; 10 μM): -2%
- % INHIBITION ([3]; 0.1 μM): −2%
- % INHIBITION ([3]; 10 μM): 10%
- % INHIBITION ([4]; 0.1 μM): 15%
- % INHIBITION ([4]; 10 μM): 85%
- inhibition at 0.1 µM ([5]; 0.1 μM): 18%
- inhibition at 10 µM ([5]; 10 μM): 65%

Compound: CN[C@H]1CC[C@@H](c2ccc(Cl)c(Cl)c2)c2ccccc21 [Sertaline, sertraline, reference compound]
- % Positive Control (HepG2 cells; human, 48 h, 3 μM): 100%
- cytotoxicity at 48 h, 3 µM [1]: 15%
- fold induction at 48 h, 3 µM [1]: 52

Compound: NCCN1CCC(CCN2c3ccccc3Sc3ccc(C(F)(F)F)cc32)CC1 [ICI-1008]
- % INHIBITION ([2]; 0.1 μM): −3%
- % INHIBITION ([2]; 10 μM): 0%
- % INHIBITION ([3]; 0.1 μM): −20%
- % INHIBITION ([3]; 10 μM): 3%
- % INHIBITION ([4]; 0.1 μM): 38%
- % INHIBITION ([4]; 10 μM): 94%
- % INHIBITION ([5]; 0.1 μM): 4%
- % INHIBITION ([5]; 10 μM): 69%

Compound: Cc1cccc(CN2CCN(C(c3ccccc3)c3ccc(Cl)cc3)CC2)c1 (stereo not drawn) [Meclizine, meclizine, reference compound]
- % Positive Control (HepG2 cells; human, 48 h, 25 μM): 24%
- cytotoxicity at 48 h, 25 µM [1]: 0%
- fold induction at 48 h, 25 µM [1]: 13
